Laboratory results reported in patent publication US9783527B2, “Indazole ureas and method of use” (AbbVie Inc., priority 2014, dated 2017).

Columns and labels:
[1] = target: human Nav1.8 (Homo sapiens (Human), UniProt Q9Y5Y9); test: FRET-based membrane potential assay, recombinant human sodium channel Nav1.8; format: cell-based; conditions: HEK293 cells stably expressing recombinant human Nav1.8; depolarization with veratridine (EC80) + scorpion venom
Description: FRET-Based Membrane Potential Assays.
Recombinant, Human Sodium Channel, Nav1.8.
Two days prior to the experiment, frozen HEK293 cells stably expressing recombinant human Nav1.8 (Essen, Ann Arbor, Mich.) were quickly thawed and plated at 22,500 cells/well in growth medium [MEM (Invitrogen #11095) with 10% FBS (Invitrogen #10082), 1 mM sodium pyruvate (Invitrogen, #C11360), 10 units/mL penicillin/10 U/mL streptomycin/29.2 μg/mL glutamine ((PSG 1%, Invitrogen #10378), 400 μg/mL zeocin (Invitrogen #R250) in black-walled, clear-bottom 384-well poly-D-lysine-coated assay plates (Greiner Bio-One, Frickenhausen, Germany) and incubated in a humidified 5% CO2 incubator at 37° C. On the day of the assay, medium was removed by aspiration, and cells were washed with assay buffer [HBSS (Invitrogen, Carlsbad, Calif.) containing 20 mM HEPES (Invitrogen, Carlsbad, Calif.)]. After washing, 30 μL assay buffer containing the fluorescent voltage-sensor probe CC2-DMPE (Invitrogen, Carlsbad, Calif.) at 20 μM and 0.01% pluronic F-127 (Invitrogen, Carlsbad, Calif.) was added to the cells. Cells were incubated for 40 minutes at room temperature in the dark. Following the incubation, the cells were washed and 30 μL assay buffer containing 2.5 μM DiSBAC2(3) substrate (Invitrogen, Carlsbad, Calif.) and 0.5 mM VABSC-1 (Invitrogen, Carlsbad, Calif.) was added to the cells. The cells were incubated for 60 minutes at room temperature in the dark. Fluorescence readings were made using a FLIPR®^TETRA (Molecular Devices, Sunnyvale Calif.) equipped with voltage-sensor probe optics. The depolarizing agent, veratridine (Sigma-Aldrich, St. Louis, Mo.), was made up at 3× concentrations in assay buffer containing 1 mg/mL scorpion venom (SVqq, from Leiurus quinquestriatus; Sigma-Aldrich, St. Louis, Mo.). The assay agonist/opener concentration was determined each day using a 6-point veratridine concentration curve in duplicate, tested with three concentrations of tetracaine (0.1, 0.06, 0.01 μM all in 0.03% dimethyl sulfoxide) and 0.03% dimethyl sulfoxide control in assay buffer. […] Test compounds in the daughter plate were diluted to (˜3×) solutions in assay buffer immediately before assaying. Using the FLIPR®^TETRA, 20 μL of the (3×) compound solutions were first added to the cells, then 20 μL of depolarizing solution (3×EC80 veratridine+SVqq) were added 3 minutes later to activate the channel. Changes in fluorescence were measured at wavelengths of 440-480 nm and 565-625 nm over the course of the experimental run. Membrane depolarization was expressed as a ratio of the maximum F440-480 nm/F565-625 nm reading above average baseline F440-480 nm/F565-625 nm reading. IC50 values were calculated from curve fits of the ratio data using a four-parameter logistic Hill equation (Accelrys Assay Explorer 3.3 Client, Accelrys, San Diego, Calif.) with percent inhibition plotted against compound concentration.

[2] = target: human Nav1.7 (Homo sapiens (Human), UniProt Q15858); test: FRET-based membrane potential assay, recombinant human sodium channel Nav1.7; format: cell-based; conditions: HEK293 cells stably expressing recombinant human Nav1.7; depolarization with veratridine (EC80) + scorpion venom
Method in brief: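 IC50 derived by four-parameter Hill fit of percent inhibition of depolarization, measured as peak F440-480/F565-625 ratio over baseline. Stable human Nav1.7 HEK293 cells, dye-loaded with CC2-DMPE and DiSBAC2(3)/VABSC-1 at room temperature, received compound 3 min ahead of veratridine (EC80) plus scorpion venom.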

Chain of human Nav1.8 (Q9Y5Y9 whole entry): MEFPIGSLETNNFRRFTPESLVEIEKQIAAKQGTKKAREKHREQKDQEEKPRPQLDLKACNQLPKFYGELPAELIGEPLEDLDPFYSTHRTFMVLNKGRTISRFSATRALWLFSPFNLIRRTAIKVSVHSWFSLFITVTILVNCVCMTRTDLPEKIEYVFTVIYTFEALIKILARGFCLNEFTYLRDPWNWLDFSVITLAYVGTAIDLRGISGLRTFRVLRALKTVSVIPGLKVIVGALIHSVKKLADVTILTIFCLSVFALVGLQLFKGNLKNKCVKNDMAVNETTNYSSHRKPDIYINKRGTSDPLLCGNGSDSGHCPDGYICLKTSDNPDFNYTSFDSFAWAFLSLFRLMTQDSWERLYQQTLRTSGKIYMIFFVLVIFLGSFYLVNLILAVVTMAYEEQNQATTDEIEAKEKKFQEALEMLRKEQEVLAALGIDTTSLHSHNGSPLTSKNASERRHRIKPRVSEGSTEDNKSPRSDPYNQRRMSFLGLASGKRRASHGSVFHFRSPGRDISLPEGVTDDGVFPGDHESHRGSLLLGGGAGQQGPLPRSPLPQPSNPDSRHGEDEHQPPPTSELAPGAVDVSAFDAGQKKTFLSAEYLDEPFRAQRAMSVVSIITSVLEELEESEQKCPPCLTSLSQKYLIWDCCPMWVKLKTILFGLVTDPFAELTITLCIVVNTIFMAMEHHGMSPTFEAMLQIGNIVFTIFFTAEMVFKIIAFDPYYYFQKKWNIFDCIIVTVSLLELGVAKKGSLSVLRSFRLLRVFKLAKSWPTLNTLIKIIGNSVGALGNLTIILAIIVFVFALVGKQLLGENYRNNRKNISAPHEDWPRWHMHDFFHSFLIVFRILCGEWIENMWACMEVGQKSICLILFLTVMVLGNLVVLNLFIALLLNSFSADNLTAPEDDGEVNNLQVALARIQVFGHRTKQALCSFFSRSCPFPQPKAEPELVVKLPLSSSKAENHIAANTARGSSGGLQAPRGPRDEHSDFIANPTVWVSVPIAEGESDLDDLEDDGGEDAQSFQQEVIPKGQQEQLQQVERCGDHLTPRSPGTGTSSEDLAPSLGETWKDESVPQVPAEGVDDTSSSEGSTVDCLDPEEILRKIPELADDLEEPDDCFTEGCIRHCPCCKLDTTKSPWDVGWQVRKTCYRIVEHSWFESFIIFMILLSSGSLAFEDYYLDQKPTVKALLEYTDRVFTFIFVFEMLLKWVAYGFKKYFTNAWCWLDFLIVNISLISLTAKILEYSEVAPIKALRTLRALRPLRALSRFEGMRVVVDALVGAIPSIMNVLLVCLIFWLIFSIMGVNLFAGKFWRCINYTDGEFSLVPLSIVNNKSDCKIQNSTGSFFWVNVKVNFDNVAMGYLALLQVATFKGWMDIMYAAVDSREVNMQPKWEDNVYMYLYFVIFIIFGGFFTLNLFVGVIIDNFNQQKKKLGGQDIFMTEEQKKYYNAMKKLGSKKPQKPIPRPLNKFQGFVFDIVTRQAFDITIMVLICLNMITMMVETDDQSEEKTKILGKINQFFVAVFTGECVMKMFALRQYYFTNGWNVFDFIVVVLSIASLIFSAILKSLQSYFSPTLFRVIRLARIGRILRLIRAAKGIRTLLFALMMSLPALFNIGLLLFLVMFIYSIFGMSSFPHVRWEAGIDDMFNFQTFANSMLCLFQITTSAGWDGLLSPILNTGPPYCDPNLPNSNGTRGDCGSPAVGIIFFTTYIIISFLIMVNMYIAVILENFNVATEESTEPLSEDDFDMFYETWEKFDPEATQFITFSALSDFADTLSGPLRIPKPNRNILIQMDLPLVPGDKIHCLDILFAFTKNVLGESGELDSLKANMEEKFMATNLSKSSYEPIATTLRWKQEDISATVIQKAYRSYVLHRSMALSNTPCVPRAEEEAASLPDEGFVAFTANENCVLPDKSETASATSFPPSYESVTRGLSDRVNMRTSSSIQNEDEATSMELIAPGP
Chain of human Nav1.7 (Q15858 whole entry): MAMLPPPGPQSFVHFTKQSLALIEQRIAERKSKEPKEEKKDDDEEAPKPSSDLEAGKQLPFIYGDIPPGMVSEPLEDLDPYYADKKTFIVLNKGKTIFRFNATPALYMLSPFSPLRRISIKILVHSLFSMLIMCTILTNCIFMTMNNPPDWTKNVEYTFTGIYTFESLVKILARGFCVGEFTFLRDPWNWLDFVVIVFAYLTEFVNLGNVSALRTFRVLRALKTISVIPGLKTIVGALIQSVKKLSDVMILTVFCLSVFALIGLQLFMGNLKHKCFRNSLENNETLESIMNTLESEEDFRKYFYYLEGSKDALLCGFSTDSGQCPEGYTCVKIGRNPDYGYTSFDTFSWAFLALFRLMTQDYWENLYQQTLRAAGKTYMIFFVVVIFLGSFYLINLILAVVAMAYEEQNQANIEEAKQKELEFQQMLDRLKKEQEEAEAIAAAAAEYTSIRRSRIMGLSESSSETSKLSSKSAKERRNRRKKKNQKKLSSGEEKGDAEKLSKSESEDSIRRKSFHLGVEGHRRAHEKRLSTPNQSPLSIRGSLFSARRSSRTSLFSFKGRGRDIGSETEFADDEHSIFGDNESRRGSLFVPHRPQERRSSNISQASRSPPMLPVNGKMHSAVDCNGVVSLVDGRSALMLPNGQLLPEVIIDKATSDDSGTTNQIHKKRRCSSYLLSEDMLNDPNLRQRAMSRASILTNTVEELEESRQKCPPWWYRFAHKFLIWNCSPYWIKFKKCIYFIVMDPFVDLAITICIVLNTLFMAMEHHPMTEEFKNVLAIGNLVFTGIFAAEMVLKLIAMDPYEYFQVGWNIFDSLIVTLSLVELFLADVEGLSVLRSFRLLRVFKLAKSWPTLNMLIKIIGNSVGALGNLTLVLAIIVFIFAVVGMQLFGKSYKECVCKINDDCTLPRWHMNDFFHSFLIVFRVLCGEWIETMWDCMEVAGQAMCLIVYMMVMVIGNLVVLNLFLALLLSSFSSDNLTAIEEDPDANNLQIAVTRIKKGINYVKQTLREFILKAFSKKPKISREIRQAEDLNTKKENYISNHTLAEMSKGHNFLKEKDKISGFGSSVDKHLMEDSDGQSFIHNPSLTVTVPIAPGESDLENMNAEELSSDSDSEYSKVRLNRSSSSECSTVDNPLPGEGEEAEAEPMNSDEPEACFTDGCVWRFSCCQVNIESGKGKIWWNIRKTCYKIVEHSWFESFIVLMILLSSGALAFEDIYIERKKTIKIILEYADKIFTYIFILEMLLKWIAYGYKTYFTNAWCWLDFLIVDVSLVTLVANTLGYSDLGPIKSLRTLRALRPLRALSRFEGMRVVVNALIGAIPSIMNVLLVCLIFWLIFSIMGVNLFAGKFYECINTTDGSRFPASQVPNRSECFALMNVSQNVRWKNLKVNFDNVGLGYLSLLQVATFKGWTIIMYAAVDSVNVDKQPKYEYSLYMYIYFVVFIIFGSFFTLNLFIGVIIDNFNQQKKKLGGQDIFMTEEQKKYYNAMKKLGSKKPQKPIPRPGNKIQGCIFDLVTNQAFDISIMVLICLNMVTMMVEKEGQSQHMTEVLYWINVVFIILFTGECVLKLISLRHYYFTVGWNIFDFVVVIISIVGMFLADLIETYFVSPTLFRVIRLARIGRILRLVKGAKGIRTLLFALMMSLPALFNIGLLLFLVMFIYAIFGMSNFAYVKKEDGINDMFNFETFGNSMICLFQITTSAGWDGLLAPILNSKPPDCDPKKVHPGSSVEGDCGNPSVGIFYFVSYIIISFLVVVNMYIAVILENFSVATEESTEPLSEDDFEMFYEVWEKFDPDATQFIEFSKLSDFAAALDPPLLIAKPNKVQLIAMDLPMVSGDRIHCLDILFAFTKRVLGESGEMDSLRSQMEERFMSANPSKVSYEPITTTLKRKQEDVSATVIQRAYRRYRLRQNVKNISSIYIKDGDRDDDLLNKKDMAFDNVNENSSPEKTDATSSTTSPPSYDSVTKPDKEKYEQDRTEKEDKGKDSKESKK

Compound: O=C(CN1CCN(c2cccc3c2cnn3C2CCCCC2)C1=O)N1CC[C@H](F)C1 [Example 294, 1-(1-cyclohexyl-1H-indazol-4-yl)-3-{2-[(3S)-3-fluoropyrrolidin-1-yl]-2-oxoethyl}imidazolidin-2-one]
- IC50 [1]: 18300 nM
- IC50 [2]: 7170 nM

Compound: O=C(CN1CCN(c2cccc3c2cnn3-c2ccccc2F)C1=O)N1CCCCC1 [Example 295, 1-[1-(2-fluorophenyl)-1H-indazol-4-yl]-3-[2-oxo-2-(piperidin-1-yl)ethyl]imidazolidin-2-one]
- IC50 [1]: 1790 nM
- IC50 [2]: 2510 nM

Compound: O=C(CN1CCN(c2cccc3c2cnn3-c2ccccc2F)C1=O)N1CCCC(F)(F)C1 [Example 296, 1-[2-(3,3-difluoropiperidin-1-yl)-2-oxoethyl]-3-[1-(2-fluorophenyl)-1H-indazol-4-yl]imidazolidin-2-one]
- IC50 [1]: 1310 nM
- IC50 [2]: 3180 nM

Compound: O=C(CN1CCN(c2cccc3c2cnn3-c2ccccc2F)C1=O)N1CCC(F)(F)CC1 [Example 297, 1-[2-(4,4-difluoropiperidin-1-yl)-2-oxoethyl]-3-[1-(2-fluorophenyl)-1H-indazol-4-yl]imidazolidin-2-one]
- IC50 [1]: 881 nM
- IC50 [2]: 3020 nM

Compound: O=C(CN1CCN(c2cccc3c2cnn3-c2ccccc2F)C1=O)N1CC(F)C1 [Example 298, 1-[2-(3-fluoroazetidin-1-yl)-2-oxoethyl]-3-[1-(2-fluorophenyl)-1H-indazol-4-yl]imidazolidin-2-one]
- IC50 [1]: 1520 nM
- IC50 [2]: 3370 nM

Compound: O=C(CN1CCN(c2cccc3c2cnn3-c2ccccc2F)C1=O)N1CCC(C(F)(F)F)CC1 [Example 299, 1-[1-(2-fluorophenyl)-1H-indazol-4-yl]-3-{2-oxo-2-[4-(trifluoromethyl)piperidin-1-yl]ethyl}imidazolidin-2-one]
- IC50 [1]: 398 nM
- IC50 [2]: 950 nM

Compound: O=C(CN1CCN(c2cccc3c2cnn3-c2ccccc2F)C1=O)N1CCCC(C(F)(F)F)C1 (centres unmarked) [Example 300, 1-[1-(2-fluorophenyl)-1H-indazol-4-yl]-3-{2-oxo-2-[3-(trifluoromethyl)piperidin-1-yl]ethyl}imidazolidin-2-one]
- IC50 [1]: 1060 nM
- IC50 [2]: 3110 nM

Compound: O=C(CN1CCN(c2cccc3c2cnn3-c2ccccc2F)C1=O)N1C[C@H]2CC[C@@H](C1)O2 [Example 301, 1-[1-(2-fluorophenyl)-1H-indazol-4-yl]-3-{2-[(1R,5S)-8-oxa-3-azabicyclo[3.2.1]oct-3-yl]-2-oxoethyl}imidazolidin-2-one]
- IC50 [1]: 1560 nM
- IC50 [2]: 3160 nM

Compound: O=C1CCN(C(=O)CN2CCN(c3cccc4c3cnn4-c3ccccc3F)C2=O)C1 [Example 302, 1-[1-(2-fluorophenyl)-1H-indazol-4-yl]-3-[2-oxo-2-(3-oxopyrrolidin-1-yl)ethyl]imidazolidin-2-one]
- IC50 [1]: 7180 nM
- IC50 [2]: 20000 nM

Compound: O=C(CN1CCN(c2cccc3c2cnn3-c2ccccc2F)C1=O)N1CCCCCC1 [Example 303, 1-[2-(azepan-1-yl)-2-oxoethyl]-3-[1-(2-fluorophenyl)-1H-indazol-4-yl]imidazolidin-2-one]
- IC50 [1]: 930 nM
- IC50 [2]: 2460 nM

Compound: O=C(CN1CCN(c2cccc3c2cnn3-c2ccccc2F)C1=O)NCC(F)(F)F [Example 304, 2-{3-[1-(2-fluorophenyl)-1H-indazol-4-yl]-2-oxoimidazolidin-1-yl}-N-(2,2,2-trifluoroethyl)acetamide]
- IC50 [1]: 1410 nM
- IC50 [2]: 4790 nM

Compound: CC(C)(C)CCn1ncc2c(N3CCN(CC(=O)N4CCCC4)C3=O)cccc21 [Example 305, 1-[1-(3,3-dimethylbutyl)-1H-indazol-4-yl]-3-[2-oxo-2-(pyrrolidin-1-yl)ethyl]imidazolidin-2-one]
- IC50 [1]: 3330 nM
- IC50 [2]: 3670 nM

Compound: CC(C)(C)n1ncc2c(N3CCN(CC(=O)N4CC[C@H](F)C4)C3=O)cccc21 [Example 306, 1-(1-tert-butyl-1H-indazol-4-yl)-3-{2-[(3S)-3-fluoropyrrolidin-1-yl]-2-oxoethyl}imidazolidin-2-one]
- IC50 [1]: 20000 nM
- IC50 [2]: 20000 nM

Compound: O=C(CN1CCN(c2cccc3c2cnn3-c2ccccc2F)C1=O)N1CC[C@H](C(F)(F)F)C1 [Example 308, 1-[1-(2-fluorophenyl)-1H-indazol-4-yl]-3-{2-oxo-2-[(3S)-3-(trifluoromethyl)pyrrolidin-1-yl]ethyl}imidazolidin-2-one]
- IC50 [1]: 345 nM
- IC50 [2]: 1020 nM

Compound: CC1(F)CN(C(=O)CN2CCN(c3cccc4c3cnn4-c3ccccc3F)C2=O)C1 [Example 309, 1-[2-(3-fluoro-3-methylazetidin-1-yl)-2-oxoethyl]-3-[1-(2-fluorophenyl)-1H-indazol-4-yl]imidazolidin-2-one]
- IC50 [1]: 725 nM
- IC50 [2]: 695 nM

Compound: O=C(CN1CCN(c2cccc3c2cnn3-c2ccccc2F)C1=O)NC1CC(F)(F)C1 [Example 310, N-(3,3-difluorocyclobutyl)-2-{3-[1-(2-fluorophenyl)-1H-indazol-4-yl]-2-oxoimidazolidin-1-yl}acetamide]
- IC50 [1]: 878 nM
- IC50 [2]: 2810 nM

Compound: O=C1C[C@H]2CC[C@@H](C1)N2C(=O)CN1CCN(c2cccc3c2cnn3-c2ccccc2F)C1=O [Example 311, (1R,5S)-8-({3-[1-(2-fluorophenyl)-1H-indazol-4-yl]-2-oxoimidazolidin-1-yl}acetyl)-8-azabicyclo[3.2.1]octan-3-one]
- IC50 [1]: 4350 nM
- IC50 [2]: 5850 nM

Compound: O=C(CN1CCN(c2cccc3c2cnn3-c2ccccc2F)C1=O)N1CC(F)(F)C(F)(F)C1 [Example 312, 1-[1-(2-fluorophenyl)-1H-indazol-4-yl]-3-[2-oxo-2-(3,3,4,4-tetrafluoropyrrolidin-1-yl)ethyl]imidazolidin-2-one]
- IC50 [1]: 1680 nM
- IC50 [2]: 1710 nM

Compound: O=C1CCCN(C(=O)CN2CCN(c3cccc4c3cnn4-c3ccccc3F)C2=O)CC1 [Example 313, 1-({3-[1-(2-fluorophenyl)-1H-indazol-4-yl]-2-oxoimidazolidin-1-yl}acetyl)azepan-4-one]
- IC50 [1]: 3250 nM
- IC50 [2]: 2720 nM

Compound: O=C(/C=C\N1CCN(c2cccc3c2cnn3-c2ccccc2F)C1=O)N1CC[C@H](F)C1 [Example 314, 1-[1-(2-fluorophenyl)-1H-indazol-4-yl]-3-{(1Z)-3-[(3S)-3-fluoropyrrolidin-1-yl]-3-oxoprop-1-en-1-yl}imidazolidin-2-one]
- IC50 [1]: 912 nM
- IC50 [2]: 3250 nM

Compound: CCNC(=O)CN1CCN(c2cccc3c2cnn3-c2ccccc2F)C1=O [Example 315, N-ethyl-2-{3-[1-(2-fluorophenyl)-1H-indazol-4-yl]-2-oxoimidazolidin-1-yl}acetamide]
- IC50 [1]: 3560 nM
- IC50 [2]: 2960 nM

Compound: O=C(CCN1CCN(c2cccc3c2cnn3-c2ccccc2F)C1=O)N1CCC[C@@H](F)C1 [Example 317, 1-[1-(2-fluorophenyl)-1H-indazol-4-yl]-3-{3-[(3R)-3-fluoropiperidin-1-yl]-3-oxopropyl}imidazolidin-2-one]
- IC50 [1]: 1280 nM
- IC50 [2]: 2440 nM

Compound: O=C(CCN1CCN(c2cccc3c2cnn3-c2ccccc2F)C1=O)N1CCC[C@H](F)C1 [Example 318, 1-[1-(2-fluorophenyl)-1H-indazol-4-yl]-3-{3-[(3S)-3-fluoropiperidin-1-yl]-3-oxopropyl}imidazolidin-2-one]
- IC50 [1]: 3470 nM
- IC50 [2]: 3140 nM

Compound: COC1CN(C(=O)CN2CCN(c3cccc4c3cnn4-c3ccccc3F)C2=O)C1 [Example 319, 1-[1-(2-fluorophenyl)-1H-indazol-4-yl]-3-[2-(3-methoxyazetidin-1-yl)-2-oxoethyl]imidazolidin-2-one]
- IC50 [1]: 3020 nM
- IC50 [2]: 3140 nM

Compound: O=C(CN1CCN(c2cccc3c2cnn3-c2ccccc2F)C1=O)NC1CCOCC1 [Example 320, 2-{3-[1-(2-fluorophenyl)-1H-indazol-4-yl]-2-oxoimidazolidin-1-yl}-N-(tetrahydro-2H-pyran-4-yl)acetamide]
- IC50 [1]: 10100 nM
- IC50 [2]: 16800 nM
